Measured values taken from the NIST ThermoML archive (doi:10.1021/je0496140).

Legend:
[1] = 101.33 kPa, Liquid
[2] = xn = mol fraction of the nth substance listed; conditions: 101.33 kPa, Liquid

CCCCCl [1-chlorobutane]
[1]
Conditions | mass density [kg/m3] | viscosity [mPa·s]
288.15 K | 891.87 | 0.477
298.15 K | 880.18 | 0.429
303.15 K | 875.19 | 0.409
308.15 K | 869.64 | 0.39
313.15 K | 863.94 | 0.372
318.15 K | 858.31 | 0.354

CC(C)(C)O [2-methylpropan-2-ol]
[1]
Conditions | mass density [kg/m3] | viscosity [mPa·s]
298.15 K | 779.96 | 4.433
303.15 K | 775.3 | 3.355
308.15 K | 770.19 | 2.611
313.15 K | 764.83 | 2.074
318.15 K | 759.52 | 1.685

CCC(C)O (configuration not stated) [butan-2-ol]
[1]
Conditions | mass density [kg/m3] | viscosity [mPa·s]
288.15 K | 810.72 | 4.509
298.15 K | 801.82 | 3.035
308.15 K | 794.07 | 2.111
318.15 K | 785.15 | 1.523

CCCCCl [1-chlorobutane] + CCC(C)O
[2]
Conditions | mass density [kg/m3] | viscosity [mPa·s]
288.15 K, x2 = 0.05 | 887.1 | –
288.15 K, x2 = 0.0965 | – | 0.496
288.15 K, x2 = 0.1177 | 881.38 | –
288.15 K, x2 = 0.1435 | 879.24 | –
288.15 K, x2 = 0.1962 | 874.99 | –
288.15 K, x2 = 0.1973 | – | 0.542
288.15 K, x2 = 0.2227 | 872.88 | –
288.15 K, x2 = 0.2962 | – | 0.601
288.15 K, x2 = 0.34 | 863.63 | –
288.15 K, x2 = 0.3934 | – | 0.688
288.15 K, x2 = 0.4058 | 858.45 | –
288.15 K, x2 = 0.4104 | 858.09 | –
288.15 K, x2 = 0.4917 | – | 0.805
288.15 K, x2 = 0.4986 | 851.12 | –
288.15 K, x2 = 0.5241 | 849.12 | –
288.15 K, x2 = 0.5527 | 846.87 | –
288.15 K, x2 = 0.5923 | – | 0.995
288.15 K, x2 = 0.6114 | 842.23 | –
288.15 K, x2 = 0.6634 | 838.14 | –
288.15 K, x2 = 0.6919 | – | 1.286
288.15 K, x2 = 0.7388 | 832.24 | –
288.15 K, x2 = 0.7931 | – | 1.764
288.15 K, x2 = 0.7984 | 827.45 | –
288.15 K, x2 = 0.8286 | 824.99 | –
288.15 K, x2 = 0.884 | 820.5 | –
288.15 K, x2 = 0.8933 | – | 2.648
288.15 K, x2 = 0.9367 | 816.07 | –
298.15 K, x2 = 0.0965 | – | 0.444
298.15 K, x2 = 0.1973 | – | 0.478
298.15 K, x2 = 0.2962 | – | 0.524
298.15 K, x2 = 0.3934 | – | 0.587
298.15 K, x2 = 0.4917 | – | 0.675
298.15 K, x2 = 0.5923 | – | 0.811
298.15 K, x2 = 0.6919 | – | 1.011
298.15 K, x2 = 0.7931 | – | 1.334
298.15 K, x2 = 0.8933 | – | 1.901
308.15 K, x2 = 0.0965 | – | 0.399
308.15 K, x2 = 0.1007 | 860.49 | –
308.15 K, x2 = 0.1941 | 853.08 | –
308.15 K, x2 = 0.1973 | – | 0.426
308.15 K, x2 = 0.2775 | 846.72 | –
308.15 K, x2 = 0.2962 | – | 0.462
308.15 K, x2 = 0.3881 | 838.47 | –
308.15 K, x2 = 0.3934 | – | 0.51
308.15 K, x2 = 0.4876 | 831.15 | –
308.15 K, x2 = 0.4917 | – | 0.577
308.15 K, x2 = 0.5897 | 823.73 | –
308.15 K, x2 = 0.5923 | – | 0.676
308.15 K, x2 = 0.6919 | – | 0.818
308.15 K, x2 = 0.6927 | 816.37 | –
308.15 K, x2 = 0.7931 | – | 1.034
308.15 K, x2 = 0.795 | 808.99 | –
308.15 K, x2 = 0.8933 | – | 1.419
308.15 K, x2 = 0.8963 | 801.67 | –
318.15 K, x2 = 0.0864 | 850.35 | –
318.15 K, x2 = 0.0965 | – | 0.362
318.15 K, x2 = 0.1906 | 842.1 | –
318.15 K, x2 = 0.1973 | – | 0.382
318.15 K, x2 = 0.2732 | 835.88 | –
318.15 K, x2 = 0.2962 | – | 0.41
318.15 K, x2 = 0.382 | 828 | –
318.15 K, x2 = 0.3934 | – | 0.45
318.15 K, x2 = 0.4862 | 820.61 | –
318.15 K, x2 = 0.4917 | – | 0.498
318.15 K, x2 = 0.5852 | 813.65 | –
318.15 K, x2 = 0.5923 | – | 0.571
318.15 K, x2 = 0.6823 | 806.95 | –
318.15 K, x2 = 0.6919 | – | 0.676
318.15 K, x2 = 0.7865 | 799.78 | –
318.15 K, x2 = 0.7931 | – | 0.825
318.15 K, x2 = 0.8928 | 792.59 | –
318.15 K, x2 = 0.8933 | – | 1.072
